The source of these data is ChEMBL document CHEMBL5625265, “Exploring 2-methyl-substituted vitamin K3 derivatives with potent inhibitory activity against the 3CL protease of SARS-CoV-2” (Bioorg Med Chem Lett, 2024).

The target of experiment [1] is Replicase polyprotein 1ab (Severe acute respiratory syndrome coronavirus 2) (UniProt P0DTD1). Description: Inhibition of SARS-CoV-2 3CL protease at 10 uM using Dabcyl-KTSAVLQSGFRKME-Edans as a substrate preincubated for 30 mins followed by substrate addition and measured after for 4 hrs by FRET assay relative to control. Particulars: time 4.5 hrs.
Experiment [2] addresses Replicase polyprotein 1ab (Severe acute respiratory syndrome coronavirus 2, UniProt P0DTD1). Description: Inhibition of SARS-CoV-2 3CL protease using Dabcyl-KTSAVLQSGFRKME-Edans as a substrate preincubated for 30 mins followed by substrate addition and measured after for 4 hrs by FRET assay.

pIC50: −log10 of the molar value. Active and inactive are the calls of the source. No cut-off for these calls is given here.

As usually defined, the inhibition is the share of the control response that was lost under treatment. Compound `CC1=CC(=O)c2ccccc2C1=O` displayed an inhibition in experiment [1] of 40%.

Regarding `CC(=O)CCC1=CC(=O)c2ccccc2C1=O`, the inhibition result in experiment [1] was “Active”.

The term pIC50 denotes the IC50 on a negative log10 scale, so that one unit is a factor of ten. Higher therefore signals a small IC50. For `CCSC1=CC(=O)c2ccccc2C1=O`, the inhibition entry in experiment [1] is “Active”. This compound also gave a negative-log IC50 (pIC50) in experiment [2] of 5.27.

For the compound `O=C1C=C(C2CCC2)C(=O)c2ccccc21`, the inhibition result in experiment [1] is “Active”.

`O=C1C=C(C2CC2)C(=O)c2ccccc21`: in experiment [1], the inhibition result is “Active”.

Regarding `O=C1C=C(Sc2ccccc2)C(=O)c2ccccc21`, in experiment [1], the inhibition result was “Active”. In addition, in experiment [2], the pIC50 was 6.02.

As to `O=C1C=C(Oc2ccccc2)C(=O)c2ccccc21`, the inhibition entry in experiment [1] was “Active”.
